Test results: US10632133B2, “Anti-viral azide containing compounds” (Life Technologies Corporation, priority 2010, dated 2020)

Key:
[1] = system: Nuclear-GFP BacMam 2.0 virus (baculovirus); assay: BacMam baculovirus infectivity in U2-OS cells (nuclear-GFP expression); assay type: cell-based; settings: virus labeled in Sf9 cells with 50 uM analog; 20 or 50 uL virus, overnight at 37C; FIG. 5
Text: Inhibition of insect cell baculovirus infectivity with azido fatty acid analogs: The BacMam system uses a modified insect cell virus (baculovirus) as a vehicle to efficiently deliver and express genes in mammalian cells, A Nuclear-GFP BacMam 2.0 expression system (Invitrogen, C10602) was used as a model to determine if PTM analog labeling of the virus would affect mammalian cell infectivity. Viruses were labeled with various PTM analogs and used to infect mammalian cells. Infectivity was determined by the expression of nuclear-GFP, is viral entry into the cell is required for expression of GFP protein. […]
Characterization of BacMam virus production: To verify, quantitate, and normalize the amount of enriched viruses obtained from insect cell supernatants, samples of each virus were lysed in SDS sample preparation buffer (SPB), sonicated with a probe tip sonicator, and heated at 90C to completely dissolve the viral proteins. Viral protein concentrations of the lysates were then determined. […]
Mammalian cell infection protocol: To determine if the PTM analog-labeled viruses retain the ability to infect mammalian cells, 50,000 U2-OS cells (human osteosarcoma cell line) were plated onto a 6 well-chamber glass bottom plate. […] The following day cells were imaged on AMG EVOS fluorescence microscope at 10× or 20× magnification using both white light and GFP filters (FIG. 5). […]

[2] = system: HIV; assay: HIV infectivity, luciferase reporter assay on TZM/BI reporter cell line with azide-labeled virus; assay type: cell-based, human immunodeficiency virus (HIVNL4-3); settings: virus produced in CEMx174 cells spiked with the compound; incubated 12 hours on TZM/BI; single cycle replication system; two luciferase reagents (FIGS. 3 and 4)
Procedure: CEMx174 cells were transfected with HIVNL4-3 in a T-150 flask and the virus production was monitored by reverse transcriptase activity until peak virus production occurred (usually 7 to 9 days post transfection). Prior to transfection, the CEMx174 cells were spiked with the following azide-modified biomolecules: 15-azidopentadecanoic acid (50-100 μM), 12-azidododecanoic acid (50-100 μM), tetraacetylated N-azidoacetylgalactosamine (20-40 μM), and tetraacetylated N-azidoacetyl-D-mannosamine (20-40 μM).
Labeled virus was also obtained from the transfected cells. More specifically, virus-containing supernatants were collected and virus was purified through 20% sucrose as previously described (Graham, D. R. et al., Proteomics 2008, 8:4919-30). The purified virus was then mixed with the CLICK-IT® detection reagent, tetramethylrhodamine (TAMRA) alkyne and the CLICK-IT® Protein Reaction Buffer Kit (Invitrogen, Carlsbad, Calif.). Virus samples were run on a one-dimensional gel to reveal azide-labeled viral proteins (FIG. 2). […]
To examine the effect of the azide-modified biomolecules on the innate biology of the virus, the azide-labeled virus from the transfected cells was isolated and tested in cell infection studies. […] Viral infectivity was determined by measuring cellular luciferase activities with two different luciferase reagents.

| Compound | nuclear-GFP expression in U2-OS cells treated with labeled BacMam virus [1] | impact on the infectivity of the virus (cellular luciferase activities) [2] |
| --- | --- | --- |
| [N-]=[N+]=NCCCCCCCCCCCCCCC(=O)O [15-azidopentadecanoic acid] | no nuclear-GFP expression | – |
| [N-]=[N+]=NCCCCCCCCCCCC(=O)O [12-azidododecanoic acid] | no nuclear-GFP expression | profound impact on the infectivity of the virus |
